Like-named read-outs stand apart in the source and are kept apart here.
Molecular target: BCL6 (Homo sapiens (Human), UniProt P41182)
Assay: Immunofluorescence high content imaging of BCL6 degradation in T47D cells
Format: cell-based
Conditions: for DC50: class symbols A-D, read-out: EC50 (nM)*
In short: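 Seed T47D in RPMI1640-10% FBS to reach ~70-90% confluence at endpoint; add degrader next day (11-point 3-fold series, top 0.1 or 1 μM final) for 3 days. Then fix, permeabilize, stain BCL6 with nuclear Hoechst, and image.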

Row | SMILES | DC50 | IC50 (T47D cells) | also measured
1 | CNC(=O)COc1cc2cc(Nc3nc(N4CCC(OCCOCCOCCNc5cccc6c5C(=O)N(C5CCC(=O)NC5=O)C6=O)CC4)ncc3Cl)ccc2n(C)c1=O (stereo not drawn) [compound 57, 2-((6-((5-chloro-2-(4-(2-(2-(2-((2-(2,6-dioxopiperidin-3-yl)-1,3-dioxoisoindolin-4-yl)amino)ethoxy)ethoxy)ethoxy)piperidin-1-yl)pyrimidin-4-yl)amino)-1-methyl-2-oxo-1,2-dihydroquinolin-3-yl)oxy)-N-methylacetamide] | > 100 nM |  | 
2 | CNC(=O)COc1cc2cc(Nc3nc(N4CCC(CN5CCC(c6ccc7c(c6)C(=O)N(C6CCC(=O)NC6=O)C7=O)CC5)CC4)ncc3Cl)ccc2n(C(C)C)c1=O (stereo not drawn) [compound 365, 2-{[6-({5-chloro-2-[4-({4-[2-(2,6-dioxopiperidin-3-yl)-1,3-dioxo-2,3-dihydro-1H-isoindol-5-yl]piperidin-1-yl}methyl)piperidin-1-yl]pyrimidin-4-yl}amino)-2-oxo-1-(propan-2-yl)-1,2-dihydroquinolin-3-yl]oxy}-N-methylacetamide] |  | < 10 nM | Dmax (T47D cells): ≥ 70%
3 | CNC(=O)COc1cc2cc(Nc3nc(N4CCO[C@H](COc5ccc(C(=O)NC6CCC(=O)NC6=O)cc5)C4)ncc3Cl)ccc2n(C(C)C)c1=O (stereo partly drawn) [compound 348, 4-{[(2S)-4-[5-chloro-4-({3-[(methylcarbamoyl)methoxy]-2-oxo-1-(propan-2-yl)-1,2-dihydroquinolin-6-yl}amino)pyrimidin-2-yl]morpholin-2-yl]methoxy}-N-(2,6-dioxopiperidin-3-yl)benzamide] |  | 10 to 50 nM | Dmax (T47D cells): < 50%
4 | CNC(=O)COc1cc2cc(Nc3nc(N4CCN(CC5CCN(c6cccc(C(=O)NC7CCC(=O)NC7=O)c6F)CC5)CC4)ncc3Cl)ccc2n(C(C)C)c1=O (stereo not drawn) [compound 296, 3-[4-({4-[5-chloro-4-({3-[(methylcarbamoyl)methoxy]-2-oxo-1-(propan-2-yl)-1,2-dihydroquinolin-6-yl}amino)pyrimidin-2-yl]piperazin-1-yl}methyl)piperidin-1-yl]-N-(2,6-dioxopiperidin-3-yl)-2-fluorobenzamide] |  |  | IC50: < 10 nM; Dmax (T47D): ≥ 70%
5 | CNC(=O)COc1cc2cc(Nc3nc(N4CC5(CCN(CC6CCN(c7ccc8c(c7)C(=O)N(C7CCC(=O)NC7=O)C8=O)CC6)CC5)C4)ncc3Cl)ccc2n(C(C)C)c1=O (stereo not drawn) [compound 422, 2-{[6-({5-chloro-2-[7-({1-[2-(2,6-dioxopiperidin-3-yl)-1,3-dioxo-2,3-dihydro-1H-isoindol-5-yl]piperidin-4-yl}methyl)-2,7-diazaspiro[3.5]nonan-2-yl]pyrimidin-4-yl}amino)-2-oxo-1-(propan-2-yl)-1,2-dihydroquinolin-3-yl]oxy}-N-methylacetamide] |  | < 10 nM | Dmax (T47D cells): 50 to 70%
6 | CNC(=O)COc1cc2cc(Nc3nc(N4CCC(OCCOCCOCCOCCCOc5ccccc5-c5ccc6c(c5)CN(C5CCC(=O)NC5=O)C6=O)CC4)ncc3Cl)ccc2n(C)c1=O (stereo not drawn) [compound 93, 2-((6-((5-chloro-2-(4-(2-(2-(2-(3-(2-(2-(2,6-dioxopiperidin-3-yl)-1-oxoisoindolin-5-yl)phenoxy)propoxy)ethoxy)ethoxy)ethoxy)piperidin-1-yl)pyrimidin-4-yl)amino)-1-methyl-2-oxo-1,2-dihydroquinolin-3-yl)oxy)-N-methylacetamide] | > 100 nM |  | 
7 | CC(=O)COc1cc2cc(Nc3nc(N4CC(OC5CCN(c6ccc7c(c6)C(=O)N(C6CCC(=O)NC6=O)C7=O)CC5)C4)ncc3Cl)ccc2n(C)c1=O (stereo not drawn) [compound 183, 5-(4-((1-(5-chloro-4-((1-methyl-2-oxo-3-(2-oxopropoxy)-1,2-dihydroquinolin-6-yl)amino)pyrimidin-2-yl)azetidin-3-yl)oxy)piperidin-1-yl)-2-(2,6-dioxopiperidin-3-yl)isoindoline-1,3-dione] |  |  | IC50: 10 to 50 nM; Dmax (T47D): < 50%
8 | CNC(=O)COc1cc2cc(Nc3nc(N4CCC(CN5CCC(c6ccc(N7CCC(=O)NC7=O)c(OC)c6)CC5)CC4)ncc3Cl)ccc2n(C(C)C)c1=O [compound 415, 2-{[6-({5-chloro-2-[4-({4-[4-(2,4-dioxo-1,3-diazinan-1-yl)-3-methoxyphenyl]piperidin-1-yl}methyl)piperidin-1-yl]pyrimidin-4-yl}amino)-2-oxo-1-(propan-2-yl)-1,2-dihydroquinolin-3-yl]oxy}-N-methylacetamide] |  | ≥ 100 nM | 
9 | CCn1c(=O)c(OCC(=O)NC)cc2cc(Nc3nc(N4CCN(CC5CCN(c6ccc7c(c6)C(=O)N(C6CCC(=O)NC6=O)C7=O)CC5)CC4)ncc3Cl)ccc21 (stereo not drawn) [compound 250, 2-((6-((5-chloro-2-(4-((1-(2-(2,6-dioxopiperidin-3-yl)-1,3-dioxoisoindolin-5-yl)piperidin-4-yl)methyl)piperazin-1-yl)pyrimidin-4-yl)amino)-1-ethyl-2-oxo-1,2-dihydroquinolin-3-yl)oxy)-N-methylacetamide] |  |  | IC50: < 10 nM; Dmax (T47D): 50 to 70%
10 | CNC(=O)COc1cc2cc(Nc3nc(N4CCC(N(C)[C@H]5CC[C@H](CN6CCN(c7ccc8c(c7)CN(C7CCC(=O)NC7=O)C8=O)CC6)CC5)CC4)ncc3Cl)ccc2n(C)c1=O (stereo partly drawn) [compound 101, 2-((6-((5-chloro-2-(4-(((1r,4r)-4-((4-(2-(2,6-dioxopiperidin-3-yl)-1-oxoisoindolin-5-yl)piperazin-1-yl)methyl)cyclohexyl) (methyl)amino)piperidin-1-yl)pyrimidin-4-yl)amino)-1-methyl-2-oxo-1,2-dihydroquinolin-3-yl)oxy)-N-methylacetamide] | < 10 nM |  | 
11 | CNC(=O)CCN1Cc2cc(Nc3nc(N4CCN(CC5CCN(c6ccc7c(c6)C(=O)N(C6CCC(=O)NC6=O)C7=O)CC5)CC4)ncc3Cl)ccc2CC1=O (stereo not drawn) [compound 395, 3-[7-({5-chloro-2-[4-({1-[2-(2,6-dioxopiperidin-3-yl)-1,3-dioxo-2,3-dihydro-1H-isoindol-5-yl]piperidin-4-yl}methyl)piperazin-1-yl]pyrimidin-4-yl}amino)-3-oxo-1,2,3,4-tetrahydroisoquinolin-2-yl]-N-methylpropanamide] |  | 1000 nM | 
12 | CNC(=O)COc1cc2cc(Nc3nc(N4CCC(OCCOCC(=O)N[C@H](C(=O)N5C[C@H](O)C[C@H]5C(=O)NCc5ccc(-c6scnc6C)cc5)C(C)(C)C)CC4)ncc3Cl)ccc2n(C)c1=O [compound 86, (2S,4R)-1-((S)-2-(2-(2-((1-(5-chloro-4-((1-methyl-3-(2-(methylamino)-2-oxoethoxy)-2-oxo-1,2-dihydroquinolin-6-yl)amino)pyrimidin-2-yl)piperidin-4-yl)oxy)ethoxy)acetamido)-3,3-dimethylbutanoyl)-4-hydroxy-N-(4-(4-methylthiazol-5-yl)benzyl)pyrrolidine-2-carboxamide] | 50 to 100 nM |  | 
13 | CNC(=O)COc1cc2cc(Nc3nc(N4CCC(c5cn(CCOCCOCCOc6ccc7c(c6)C(=O)N(C6CCC(=O)NC6=O)C7=O)nn5)CC4)ncc3Cl)ccc2n(C)c1=O (stereo not drawn) [compound 120, 2-((6-((5-chloro-2-(4-(1-(2-(2-(2-((2-(2,6-dioxopiperidin-3-yl)-1,3-dioxoisoindolin-5-yl)oxy)ethoxy)ethoxy)ethyl)-1H-1,2,3-triazol-4-yl)piperidin-1-yl)pyrimidin-4-yl)amino)-1-methyl-2-oxo-1,2-dihydroquinolin-3-yl)oxy)-N-methylacetamide] | 50 to 100 nM |  | 
14 | CCn1c(=O)c(OCC(=O)NC)cc2cc(Nc3nc(N4CCN(C(C)(C)C5CCN(c6ccc7c(c6)CN(C6CCC(=O)NC6=O)C7=O)CC5)CC4)ncc3Cl)ccc21 (stereo not drawn) [compound 313, 2-{[6-({5-chloro-2-[4-(2-{1-[2-(2,6-dioxopiperidin-3-yl)-1-oxo-2,3-dihydro-1H-isoindol-5-yl]piperidin-4-yl}propan-2-yl)piperazin-1-yl]pyrimidin-4-yl}amino)-1-ethyl-2-oxo-1,2-dihydroquinolin-3-yl]oxy}-N-methylacetamide] |  |  | IC50: < 10 nM; Dmax (T47D): 50 to 70%
15 | CNC(=O)COc1cc2cc(Nc3nc(N4CCC(OC5CC6(C5)CN(c5cccc7c5CN(C5CCC(=O)NC5=O)C7=O)C6)CC4)ncc3Cl)ccc2n(C(C)C)c1=O (stereo not drawn) [compound 424, 2-{[6-({5-chloro-2-[4-({2-[2-(2,6-dioxopiperidin-3-yl)-1-oxo-2,3-dihydro-1H-isoindol-4-yl]-2-azaspiro[3.3]heptan-6-yl}oxy)piperidin-1-yl]pyrimidin-4-yl}amino)-2-oxo-1-(propan-2-yl)-1,2-dihydroquinolin-3-yl]oxy}-N-methylacetamide] |  | 10 to 50 nM | Dmax (T47D cells): ≥ 70%
16 | CNC(=O)COc1cc2cc(Nc3nc(N4CCC(OCCOc5ccc6c(c5)CN(C5CCC(=O)NC5=O)C6=O)CC4)ncc3Cl)ccc2n(C)c1=O (stereo not drawn) [compound 71, 2-((6-((5-chloro-2-(4-(2-((2-(2,6-dioxopiperidin-3-yl)-1-oxoisoindolin-5-yl)oxy)ethoxy)piperidin-1-yl)pyrimidin-4-yl)amino)-1-methyl-2-oxo-1,2-dihydroquinolin-3-yl)oxy)-N-methylacetamide] | 50 to 100 nM |  | 
17 | CNC(=O)COc1cc2cc(Nc3nc(N4CCN(CC5CCN(c6ccc7c(c6)CN(C6CCC(=O)NC6=O)C7=O)CC5)CC4)ncc3Cl)ccc2n(C(C)C)c1=O (stereo not drawn) [compound 388, 2-{[6-({5-chloro-2-[4-({1-[2-(2,6-dioxopiperidin-3-yl)-1-oxo-2,3-dihydro-1H-isoindol-5-yl]piperidin-4-yl}methyl)piperazin-1-yl]pyrimidin-4-yl}amino)-2-oxo-1-(propan-2-yl)-1,2-dihydroquinolin-3-yl]oxy}-N-methylacetamide] |  | < 10 nM | Dmax (T47D cells): 50 to 70%
18 | CNC(=O)COc1cc2cc(Nc3nc(N4CCC(Cc5cn(CCOCC(=O)N[C@H](C(=O)N6C[C@H](O)C[C@H]6C(=O)N[C@@H](C)c6ccc(-c7scnc7C)cc6)C(C)(C)C)nn5)CC4)ncc3Cl)ccc2n(C)c1=O [compound 122, (2S,4R)-1-((S)-2-(2-(2-(4-((1-(5-chloro-4-((1-methyl-3-(2-(methylamino)-2-oxoethoxy)-2-oxo-1,2-dihydroquinolin-6-yl)amino)pyrimidin-2-yl)piperidin-4-yl)methyl)-1H-1,2,3-triazol-1-yl)ethoxy)acetamido)-3,3-dimethylbutanoyl)-4-hydroxy-N-((S)-1-(4-(4-methylthiazol-5-yl)phenyl)ethyl)pyrrolidine-2-carboxamide] | 50 to 100 nM |  | 
